Values joined by “and” are separate entries in the source; they are usually repeats but may differ in a detail not shown here. Equal values may be shown once.

The assay relates to 327498-153-R-J2-PDC multicell spheroid viability. In words: Anticancer human tumor 327498-153-R-J2-PDC patient-derived uterine carcinosarcoma cell line growth inhibition [IpAb]. The following applies: for viability, T/C: stronger effect = lower value. In short, it runs like this: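 Multi-cell spheroids of 60% tumour cells, 25% HUVEC and 15% MSC in ultra-low-attachment U-bottom wells, treated with agents combined with ipatasertib or abemaciclib. Half-log ranges top out near clinical Cmax, or 10 microM when Cmax is unknown.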

Setting [1] is: curve of first compound, second compound 0.1 µM.
The mark [2] stands for this setting: curve of first compound, second compound 0.316 µM.
Where [3] appears, read: curve of first compound, second compound 1 µM.
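Further: spheroids exposed to agents for 7 days.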
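Wherever viability, T/C is given: 100% = DMSO vehicle control viability.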

The term IC50 denotes the concentration that gives 50% inhibition. Broadly, the viability, T/C is the ratio of treated to control. In the case of `Cn1ncc(Cl)c1-c1cc(C(=O)NC(CN)Cc2cccc(F)c2)sc1Cl` (stereo not drawn) + CC(C)NCC(C(=O)N1CCN(c2ncnc3c2C(C)CC3O)CC1)c1ccc(Cl)cc1, the IC50 was 1310 nM under setting [1]; 1640 nM under setting [2]; 1250 nM under setting [3]; 920 nM (curve of first compound, second compound 3.16 µM); less than 31.6 nM (curve of first compound, second compound 10 µM). Moreover, the viability, T/C (second compound 0.1 µM, first compound 0.0316 µM) is 98.5%; the viability, T/C (second compound 0.1 µM, first compound 0.1 µM) was 86.4%; the viability, T/C (second compound 0.1 µM, first compound 0.316 µM) is 70%; the viability, T/C (second compound 0.1 µM, first compound 1 µM) is 53.9%; the viability, T/C (second compound 0.1 µM, first compound 3.16 µM) is 38.1%; the viability, T/C (second compound 0.1 µM, first compound 10 µM) was 0.27%. Also, the viability, T/C is 77.7% (second compound 0.316 µM, first compound 0.0316 µM); 77.5% (second compound 0.316 µM, first compound 0.1 µM); 63.2% (second compound 0.316 µM, first compound 0.316 µM); 60.1% (second compound 0.316 µM, first compound 1 µM); 40% (second compound 0.316 µM, first compound 3.16 µM); 0.3% (second compound 0.316 µM, first compound 10 µM). The viability, T/C runs as follows: (second compound 1 µM, first compound 0.0316 µM) 63.4%; (second compound 1 µM, first compound 0.1 µM) 55.8%; (second compound 1 µM, first compound 0.316 µM) 55.3%; (second compound 1 µM, first compound 1 µM) 52.9%; (second compound 1 µM, first compound 3.16 µM) 39.8%; (second compound 1 µM, first compound 10 µM) 0.31%. In addition, the viability, T/C runs as follows: (second compound 3.16 µM, first compound 0.0316 µM) 50.5%; (second compound 3.16 µM, first compound 0.1 µM) 56.8%; (second compound 3.16 µM, first compound 0.316 µM) 50%; (second compound 3.16 µM, first compound 1 µM) 49.5%; (second compound 3.16 µM, first compound 3.16 µM) 39.2%; (second compound 3.16 µM, first compound 10 µM) 0.3%. The viability, T/C was 35.5% (second compound 10 µM, first compound 0.0316 µM); 45.2% (second compound 10 µM, first compound 0.1 µM); 41.7% (second compound 10 µM, first compound 0.316 µM); 35.8% (second compound 10 µM, first compound 1 µM); 35.6% (second compound 10 µM, first compound 3.16 µM); 0.42% (second compound 10 µM, first compound 10 µM).

For the compound `CC(=O)c1c(C)c2cnc(Nc3ccc(N4CCNCC4)cn3)nc2n(C2CCCC2)c1=O` + CCN1CCN(Cc2ccc(Nc3ncc(F)c(-c4cc(F)c5nc(C)n(C(C)C)c5c4)n3)nc2)CC1, the IC50 is, setting by setting: (curve of first compound, second compound 0.01 µM) more than 300 nM; (curve of first compound, second compound 0.0316 µM) more than 300 nM; under setting [1], more than 300 nM; under setting [2], more than 300 nM; under setting [3], more than 300 nM. For the same compound, the viability, T/C was 91.3% (second compound 0.01 µM, first compound 0.000949 µM); 88.8% (second compound 0.01 µM, first compound 0.003 µM); 91% (second compound 0.01 µM, first compound 0.00949 µM); 82.3% (second compound 0.01 µM, first compound 0.03 µM); 70.7% (second compound 0.01 µM, first compound 0.0949 µM); 59.1% (second compound 0.01 µM, first compound 0.3 µM). For the same compound, the viability, T/C is 77.1% (second compound 0.0316 µM, first compound 0.000949 µM); 74.8% (second compound 0.0316 µM, first compound 0.003 µM); 72.8% (second compound 0.0316 µM, first compound 0.00949 µM); 65% (second compound 0.0316 µM, first compound 0.03 µM); 59.9% (second compound 0.0316 µM, first compound 0.0949 µM); 54.8% (second compound 0.0316 µM, first compound 0.3 µM). Besides, the viability, T/C was 66.2% (second compound 0.1 µM, first compound 0.000949 µM); 61% (second compound 0.1 µM, first compound 0.003 µM); 67.3% (second compound 0.1 µM, first compound 0.00949 µM); 56.9% (second compound 0.1 µM, first compound 0.03 µM); 59.9% (second compound 0.1 µM, first compound 0.0949 µM); 57.1% (second compound 0.1 µM, first compound 0.3 µM). The viability, T/C is 58.3% (second compound 0.316 µM, first compound 0.000949 µM); 58.2% (second compound 0.316 µM, first compound 0.003 µM); 62% (second compound 0.316 µM, first compound 0.00949 µM); 54.6% (second compound 0.316 µM, first compound 0.03 µM); 56.4% (second compound 0.316 µM, first compound 0.0949 µM); 60.6% (second compound 0.316 µM, first compound 0.3 µM). Also, the viability, T/C is, setting by setting: (second compound 1 µM, first compound 0.000949 µM) 55.5%; (second compound 1 µM, first compound 0.003 µM) 57.9%; (second compound 1 µM, first compound 0.00949 µM) 62%; (second compound 1 µM, first compound 0.03 µM) 54.1%; (second compound 1 µM, first compound 0.0949 µM) 57.6%; (second compound 1 µM, first compound 0.3 µM) 56.2%.

Consider `Cn1nccc1Nc1nccc(-c2ccn(C(CO)c3ccc(Cl)c(F)c3)c(=O)c2)n1` (stereo not drawn), for which the viability, T/C is 99.2% and 102% (compound 0.0316 µM); 97.9% and 90.4% (compound 0.1 µM); 98.9% and 92% (compound 0.316 µM); 83.2% and 93.5% (compound 1 µM); 64.7% and 54.9% (compound 3.16 µM); 34.4% and 29.1% (compound 10 µM). For the same compound, the IC50 (curve of compound) is 5450 nM and 3930 nM.

Consider `CCCS(=O)(=O)Nc1ccc(F)c(C(=O)c2c[nH]c3ncc(-c4ccc(Cl)cc4)cc23)c1F`, for which the viability, T/C was 105% and 102% (compound 0.0316 µM); 116% and 103% (compound 0.1 µM); 106% and 101% (compound 0.316 µM); 106% and 98.7% (compound 1 µM); 101% and 96.1% (compound 3.16 µM); 87.3% and 92.8% (compound 10 µM). In addition, under “curve of compound”, the IC50 is more than 10000 nM.

Take `Cn1ncnc1[C@H]1c2n[nH]c(=O)c3cc(F)cc(c23)N[C@@H]1c1ccc(F)cc1`: the viability, T/C (compound 0.000316 µM) is 109% and 99%; the viability, T/C (compound 0.001 µM) is 106% and 99.6%; the viability, T/C (compound 0.00316 µM) is 99.2% and 92.1%; the viability, T/C (compound 0.01 µM) is 74.8% and 65.7%; the viability, T/C (compound 0.0316 µM) is 47.8% and 39%; the viability, T/C (compound 0.1 µM) was 26.5% and 21.4%. For the same compound, the IC50 (curve of compound) was 28 nM and 19.6 nM.

As to `CC(=O)c1c(C)c2cnc(Nc3ccc(N4CCNCC4)cn3)nc2n(C2CCCC2)c1=O`, the viability, T/C runs as follows: (compound 0.000949 µM) 106% and 97.8%; (compound 0.003 µM) 96.7% and 103%; (compound 0.00949 µM) 99.7% and 95.5%; (compound 0.03 µM) 79.2% and 89.8%; (compound 0.0949 µM) 70.2% and 70.4%; (compound 0.3 µM) 71% and 56.5%. For the same compound, the IC50 (curve of compound) is more than 300 nM.
